From US20120010176A1, “UTROPHIN PROMOTER ACTIVITY UPREGULATION FOR THE TREATMENT OF MUSCULAR DYSTROPHY” (priority 2008, published 2012)
Structures can show the parent of a compound that is named as a salt.

How the values were obtained:
utrophin promoter [1] = assay: utrophin promoter-luciferase reporter screen, 384-well format; format: cell-based; settings: C2C12utrn cells; for maximal fold induction: 24 h, read-out: Max. fold change
Method: (§1) The ability of test compounds to upregulate activity of the utrophin promoter was determined using the muscle cell line C2C12utrn, which contains the utrophin gene promoter linked to the protein-encoding sequence for luciferase. Using these cells, a chemical library was screened for compounds that activate the utrophin promoter. Light production was the readout.
In the first screening, 384-well plates were used to grow C2C12 […] cells and expose to test compounds. Cells were exposed to test compounds at a single concentration for 24 hours, wherein 19 compounds of 1120 tested produced an increase of at least 20% of the activity of the luciferase reporter.
Subsequently, the 19 compounds were rescreened at 15 different concentrations.

utrophin promoter [2] = assay: utrophin promoter-luciferase reporter assay, 96-well format; format: cell-based; settings: for maximal fold induction: read-out: Max. fold change; for dose-dependent activation of the utrophin promoter: range of concentrations, 96-well plate format, FIGS. 1 and 2
Method: as §1
In some cases compounds were tested at a range of concentrations on test cells in a 96-well plate format.

utrophin A mRNA = utrophin A mRNA upregulation in C2C12 muscle cells (TaqMan qPCR); format: cell-based; settings: either in serum-containing or serum-free media, FIG. 4
Method: In a further experiment, the activity of kawain, equilin and nabumetone were evaluated in C2C12 muscle cells for upregulation of utrophin A mRNA (FIG. 3). C2C12 muscle cells were treated with optimal doses of compounds (based on previous dose-response data) for 24 hours, either in the presence of serum or in the absence of serum (following 24 hours of serum starvation). Trichostatin A and heregulin were used as positive controls for utrophin upregulation in the presence (trichostatin A) or absence (heregulin) of serum. Utrophin A mRNA was measured using a TaqMan qPCR assay and normalised to 18S rRNA. Data are presented as fold-changes in utrophin A mRNA compared to DMS O-only controls (compounds) or media-only controls (trichostatin A and heregulin).
Additional experiments were performed in C2C12 cells. […] C2C12 cells were treated with Prestwick compounds A, J, L and S plus TSA and heregulin (HRG) as positive controls.

mice = assay: in vivo treatment of mice: muscle weights and muscle function
From the text: In vivo experiments were perfomed in mice by treating with nabumetone. […] Soleus, gastrocnemius (gastroc), tibialis anterior (TA) and quadriceps (quads) were bigger in treated mice. […] There was no difference in whole body weight between treatment groups.

[3] = 96-well format, C2C12utrn cells, luciferase readout

Molecule	dose-dependent activation of the utrophin promoter (utrophin promoter [2])	maximal fold induction (utrophin promoter [1]; luciferase readout)	maximal fold induction (utrophin promoter [2]; [3])	other results
COC1=CC(=O)O[C@@H](/C=C/c2ccccc2)C1 [kawain, [R-(E)]-5,6-dihydro-4-methoxy-6-(2-phenylethenyl)-2H-pyran-2-one]	dose-dependent activation	–	–	Optimal dose (utrophin promoter [1]): 10 µM; Max. fold change (utrophin promoter [1]; luciferase readout): 1.37; Optimal dose (utrophin promoter [2]; 96-well format, C2C12utrn cells): 20 µM; Max. fold change (utrophin promoter [2]; [3]): 2.5
C#CCN(C)CCCOc1ccc(Cl)cc1Cl [clorgyline HCl, N-[3-(2,4-dichlorophenoxy)propyl]-N-methylprop-2-yn-1-amine]	dose-dependent activation	1.16	1.9	–
C[C@]12CC[C@H]3C(=CCc4cc(O)ccc43)[C@@H]1CCC2=O [equilin, 3-hydroxy-13-methyl-9,11,12,14,15,16-hexahydro-6H-cylcopenta(a)phenanthren-17-one]	dose-dependent activation	1.6	3.4	–
CC(/C=C/C(=O)NO)=C\[C@@H](C)C(=O)c1ccc(N(C)C)cc1 [TSA, Trichostatin A]	–	–	–	levels of endogenous utrophin A mRNA (utrophin A mRNA): increased
heregulin	–	–	–	levels of endogenous utrophin A mRNA (utrophin A mRNA): increased
O=C(/C=C/C=C/c1ccc2c(c1)OCO2)N1CCCCC1 [piperine, 1-[5-(1,3-benzodioxol-5-yl)-1-oxo-2,4-pentadienyl]piperidine]	dose-dependent activation	1.59	2.3	–

The next lines start with results.

dose-dependent activation of the utrophin promoter (utrophin promoter [2])	Molecule	maximal fold induction (utrophin promoter [1]; luciferase readout)	maximal fold induction (utrophin promoter [2]; [3])	other results
dose-dependent activation	Oc1ccc(/C=C/c2cc(O)cc(O)c2)cc1 [resveratrol, trans-3,4′,5-trihydroxystilbene]	1.62	2.2	–
dose-dependent activation	Nc1nc2ccc(OC(F)(F)F)cc2s1 [riluzole HCl, 6-(trifluoromethoxy)benzothiazol-2-amine]	1.56	2.2	–
dose-dependent activation	O=c1cc(-c2ccc(O)cc2)oc2cc(O)cc(O)c12 [apigenin, 5,7-dihydroxy-2-(4-hydroxyphenyl)-4H-1-benzopyran-4-one]	1.54	3.5	–
dose-dependent activation	O=c1cc(-c2ccccc2)oc2cc(O)cc(O)c12 [chrysin, 5,7-dihydroxy-2-phenyl-4H-chromen-4-one]	1.5	3.4	–
dose-dependent activation	COc1ccc([C@@H]2CC(=O)c3c(O)cc(O)cc3O2)cc1O [hesperetin, (S)-2,3-dihydro-5,7-dihydroxy-2-(3-hydroxy-4-methoxyphenyl)-4H-1-benzopyran-4-one]	1.94	2.9	–
dose-dependent activation	Nc1ccc(/N=N/c2ccccc2)c(N)n1 [phenazopyridine HCl, 3-phenyldiazenylpyridine-2,6-diamine]	1.62	2.6	–
dose-dependent activation	c1ccc2[nH]c(-c3cscn3)nc2c1 [tiabendazole, 2-(1,3-thiazol-4-yl)-1H-benzoimidazole]	1.86	2.1	–
dose-dependent activation	Cc1oncc1C(=O)Nc1ccc(C(F)(F)F)cc1 [leflunomide, 5-methyl-N-[4-(trifluoromethyl)phenyl]isoxazole-4-carboxamide]	1.38	2.9	–
dose-dependent activation	COc1ccc2cc(CCC(C)=O)ccc2c1 [nabumetone, 4-(6-methoxy-2-naphthyl)-2-butanone]	1.56	2.5	whole body weight between treatment groups (mice; mice, FIG. 5): no difference; muscle weight, EDL (mice; treated mice, FIG. 5): not significantly bigger; muscle weight, gastrocnemius (gastroc) (mice; treated mice, FIG. 5, p<0.05): bigger; muscle weight, quadriceps (quads) (mice; treated mice, FIG. 5, p<0.05): bigger; muscle weight, soleus (mice; treated mice, FIG. 5, p<0.05): bigger; muscle weight, tibialis anterior (TA) (mice; treated mice, FIG. 5, p<0.05): bigger; force generating capacity (mice; treated muscles, FIG. 6): trend towards increased; peak specific twitch force (mice; treated muscles, FIG. 6, p<0.05): significantly increased; force drop on eccentric contraction (mice; treated muscles, FIG. 6, trend): decreased
